Reference: patent US20110130346A1, “PEPTIDE CONJUGATES FOR DELVERY OF BIOLOGICALLY ACTIVE COMPOUNDS” (ISIS INNOVATION LIMITED, priority 2008, published 2011)

How the values were obtained:
H2K mdx cells = test: WST-1 cell viability assay in H2K mdx cells; format: cell-based, mouse; settings: 2.5 μM to 25 μM, 12 hours
Protocol: The possible toxicity of the PNA-peptide conjugates in H2K mdx cells was examined using a WST-1 assay, which measures the metabolic activity of viable cells. Cells were grown in 96-well microplates overnight and treated with unmodified PNA as a control or PNA-peptide conjugates for 12 hours, and then incubated with WST-1 for approximately 4 hours. During this incubation period, viable cells convert WST-1 to a water-soluble formazan dye which is then quantified using an ELISA plate reader.

[1] = tested on: exon and intron 23 of the dystrophin gene; test: Example 2: intramuscular injection, nested RT-PCR of exon skipping; format: in vivo, mdx mice; settings: 5 ug intramuscular, 4 weeks after injection (peak)
Protocol: Total RNA was extracted from tested muscle tissues with Trizol (Invitrogen, UK) and 200 ng of RNA template was used for 20 μl RT-PCR with OneStep RT-PCR kit (Qiagen, UK). The primer sequences for the initial RT-PCR were Exon20Fo 5′-[…]-3′ and Ex26Ro 5′-[…]-3′ for amplification of messenger RNA from exons 20 to 26. The cycle conditions were 95° C. for 30 seconds, 55° C. for 1 minute and 72° C. for 2 minutes for 25 cycles. RT-PCR product (1 μl) was then used as the template for secondary PCR performed in […] with 0.5 U Taq DNA polymerase (Invitrogen, UK). The primer sequences for the second round were Ex20Fi 5′-[…]-3′ and Ex24Ri 5′-[…]-3. The cycle conditions were 95° C. for 1 minute, 57° C. for 1 minute, and 72° C. for 2 min for 25 cycles. The products were examined by electrophoresis on a 2% agarose gel.
For intramuscular studies the TA muscle of each experimental mdx mouse was injected with a […] dose of PNA and PNA-peptide conjugates with saline at a final concentration of 125 μg/ml. For systemic intravenous injections, Various amount of PNA or PNA-peptide conjugates in 80 μl saline buffer were injected into tail vein of mdx mice at the final dose of 25 mg/kg, 50 mg/kg and 100 mg/kg, respectively. The animals were killed at various time points after injection by CO2 inhalation and tissues were removed and snap-frozen in liquid nitrogen-cooled isopentane and stored at −80° C.

[2] = tested on: exon and intron 23 of the dystrophin gene; test: Example 2: systemic intravenous injection, RT-PCR of exon skipping; format: in vivo, mdx mice; settings: intravenous 25, 50 and 100 mg/kg; gastrocnemius and abdominal muscles, not other muscles
Text: (§1) To develop AO splice correction therapy for DMD it is essential to establish effective systemic dystrophin correction since DMD is a systemic disease affecting all skeletal muscles, including the diaphragm, and cardiac muscle. Other AO chemistries, including 2′OMePS and PMO chemistries, have been reported to yield variable dystrophin splice correction following intravenous systemic delivery in mdx mice, with high systemic doses being required to detect appreciable efficacy. Here we wished to evaluate the potential of neutral PNA AOs for systemic splice correction in body-wide muscles, and initially evaluated a dose-response using three intravenous single PNA doses of 25, 50 and 100 mg/kg administered to 6 week old mdx mice via tail vein injections. Dystrophin expression was studied by immunostaining of muscle tissue sections from various peripheral muscles (including quadriceps, gastrocnemius, biceps, abdominal wall, diaphragm) and heart muscle three weeks after AO administration (FIG. 7A). […] Measures of phenotypic correction, including serum biochemical measurements of creatine kinase and AST/ALT enzyme levels were negative (FIGS. 7C and D).
Total RNA was extracted from tested muscle tissues with Trizol (Invitrogen, UK) and 200 ng of RNA template was used for 20 μl RT-PCR with OneStep RT-PCR kit (Qiagen, UK). […]

[3] = Example 2: serum creatine kinase and AST/ALT after systemic injection; format: in vivo, mdx mice; settings: intravenous 25, 50 and 100 mg/kg
Text: as §1
Serum and plasma were taken from the mouse jugular vein immediately after the killing with CO2 inhalation. […]

[4] = tested on: exon and intron 23 of the dystrophin gene; test: Example 3: intramuscular injection of glucose-formulated AOs, dystrophin-positive myofibres by immunohistochemistry; format: in vivo; settings: intramuscular into TA, 8 week old mdx mice, two weeks
Protocol: Here we study a novel delivery glucose formulation by evaluating it via local intramuscular injection into the mdx mouse tibialis anterior (TA) muscle. Initial experiments were performed in 6-8 week old mdx mice (referred to as 8 weeks) by treatment with a single dose of 5 ug of 2′OMePS AO formulated in 5% glucose. In a parallel control study, age-matched control mdx mice were treated with the same AO dose formulated in standard saline buffer.
For intramuscular studies the TA muscle of each experimental mdx mouse was injected with a 40 μl dose of PNA and PNA-peptide conjugates with saline at a final concentration of 125 μg/ml, and the contralateral muscle was injected with saline. […]
Sections of 8 μm were cut from at least two-thirds of the muscle length of TA, quadriceps, gastrocnemius, biceps, abdominal wall and diaphragm muscles and cardiac muscle at 100 μm intervals. […] The maximum number of dystrophin-positive fibres in one section was counted using the Zeiss AxioVision fluorescence microscope. […] Polyclonal antibodies were detected by goat-anti-rabbit IgGs Alexa Fluro 594 (Molecular Probe, UK). […] Polyclonal antibodies were detected by goat-anti-rabbit IgGs Alexa 594 and the monoclonal antibodies by goat-anti-mouse IgGs Alexa 594 (Molecular Probe, UK). […]

## 5′-ggccaaaccteggcttacct-3′ [PNA]
H2K mdx cells
  Toxicity or inhibition of cell proliferation (WST-1): not observed
[1]
  targeted dystrophin transcripts showing splice correction (RT-PCR): about 50%
[2]
  exon skipping (RT-PCR): only very level of exon skipping
[3]
  phenotypic correction: serum creatine kinase and AST/ALT enzyme levels: negative
[4]
  dystrophin-positive myofibres, 5% glucose formulation compared with saline formulation: significant improvement
